US20070190070A1, “Methods of using and compositions comprising selective cytokine inhibitory drugs for the treatment and management of disorders of the central nervous system” (priority 2004, published 2007)

Columns and labels:
[1] = Cardiovascular and respiratory function in anesthetized dogs; type: in vivo; conditions: anesthetized Beagle dogs; 400, 800 and 1,200 mg/kg/day via jugular vein infusion; compared to the vehicle control group
Method: The effects of 3-(3,4-dimethoxy-phenyl)-3-(1-oxo-1,3-dihydro-isoindol-2-yl)-propionamide on cardiovascular and respiratory function are investigated in anesthetized dogs. Two groups of Beagle dogs (2/sex/group) are used. One group receives three doses of vehicle only and the other receives three ascending doses of 3-(3,4-dimethoxy-phenyl)-3-(1-oxo-1,3-dihydro-isoindol-2-yl)-propionamide (400, 800, and 1,200 mg/kg/day). In all cases, doses of 3-(3,4-dimethoxy-phenyl)-3-(1-oxo-1,3-dihydro-isoindol-2-yl)-propionamide or vehicle are successively administered via infusion through the jugular vein separated by intervals of at least 30 minutes.

CBP^+/− mutant mice = conditions: cited from earlier work
[2] = test system: rat mesencephalonic neurons; conditions: in the presence of the adenylate cyclase activator forskolin; cited from earlier work
[3] = test system: C57BL/6 mice injected with MPTP; conditions: cited from earlier work
patients with PD = conditions: cited from earlier work

SMILES	long-term memory defects (CBP^+/− mutant mice)	uptake of dopamine [2]	dopamine depletion in the striatum [3]	loss of tyrosine hydroxylase-immunopositive neurons in the substantia nigra [3]	further results
COc1ccc(C(CC(N)=O)N2Cc3ccccc3C2=O)cc1OC (centres unmarked) [3-(3,4-Dimethoxy-phenyl)-3-(1-oxo-1,3-dihydro-isoindol-2-yl)-propionamide]					cardiovascular and respiratory changes [1]: minimal at all doses
COc1ccc([C@H]2CNC(=O)[C@H](Cc3cccc(C)c3)C2)cc1OC1CCCC1 [HT0712]	abolished the long-term memory defects				
CCCCOc1cc(CC2CNC(=O)N2)ccc1OC (centres unmarked) [Ro-20 1724]		stimulate uptake of dopamine	reduce dopamine depletion in the striatum	reduce loss of tyrosine hydroxylase-immunopositive neurons	
COc1ccc(C2CNC(=O)C2)cc1OC1CCCC1 (centres unmarked) [Rolipram]	abolished the long-term memory defects				deterioration of the therapeutic action of dopamine against Lisuride (patients with PD; 3 mg per day, patients with PD already under treatment): no significant deterioration; dose-limiting side effect (patients with PD; Phase II trials of PD): nausea
COCCOc1cc(OCCOC)cc(-c2nc(C)cc3cc(OC)c(OC)cc23)c1 [SDZ-MNS 949]		stimulate uptake of dopamine	reduce dopamine depletion in the striatum	reduce loss of tyrosine hydroxylase-immunopositive neurons	
